These results are taken from patent publication US12110295B2, “WD40 repeat domain protein 5 (WDR5) degradation/disruption compounds and methods of use” (Icahn School of Medicine at Mount Sinai, priority 2018, dated 2024).

This experiment has as its target WDR5 (Homo sapiens, UniProt P61964). Briefly: Screening of putative WDR5 degraders by Western blot in MV4;11 and/or MIAPACA2 cells. More on the design: After WDR5 degrader treatment, cells were collected and lysed; endogenous in cells; host or cells: MV4;11 and/or MIAPACA2. The experiment is classed as cell-based. The conditions noted are these: summary of screening, FIGS. 6-10. Here is the method:
MV4;11 cells were treated with DMSO or indicated compounds at 0.1 μM and 0.5 μM for 18 hours. […]. MIAPACA2 cells were treated with DMSO or indicated compounds at 0.5 μM and 1.0 μM for 18 hours.
MIAPACA2 cells were treated with DMSO or indicated compounds at 0.1 μM and 0.5 μM for 18 hours.
MIAPACA2 cells were treated with DMSO or indicated compounds at 0.5 μM and 1.0 μM or at 1.0 μM and 10 μM for 18 hours.
MV4;11 cells were treated with DMSO or indicated compounds at 0.1 μM and 1.0 μM for 18 hours.
WDR5 degraders were dissolved in DMSO and DMSO with no degraders was used as the control. 1×10^6 MV4;11 cells or 1×10^5 MIAPACA2 or 2×10^5 Hela cells were seeded in 2 mL medium for each well in […].
For prescreening of all the compounds, each test compound was added to the medium at indicated concentrations. After 18 h treatment, cells were collected.
After WDR5 degrader treatment, cells were collected and lysed. Total cell lysates were used for western blot. The following primary antibodies were used: WDR5 (Santa Cruz), vinculin (Cell Signaling Technology), tubulin (Cell Signaling Technology), GAPDH (Santa Cruz). Blots were imaged using fluorescence-labeled secondary antibodies on ChemiDoc™ Imaging Systems.
`Cc1ncsc1-c1ccc(CNC(=O)[C@@H]2C[C@@H](O)CN2C(=O)[C@@H](NC(=O)COCCOCCOCC(=O)N2CCN(Cc3cnc(N4CC=C(c5cc(NC(=O)c6c[nH]c(=O)cc6C(F)(F)F)c(N6C[C@@H](C)N(C)[C@@H](C)C6)cc5F)CC4)nc3)CC2)C(C)(C)C)cc1` [XF078-136, N-(4-fluoro-5-(1-(5-((4-((S)-13-((2S,4R)-4-hydroxy-2-((4-(4-methylthiazol-5-yl)benzyl)carbamoyl)pyrrolidine-1-carbonyl)-14,14-dimethyl-11-oxo-3,6,9-trioxa-12-azapentadecanoyl)piperazin-1-yl)methyl)pyrimidin-2-yl)-1,2,3,6-tetrahydropyridin-4-yl)-2-((3S,5R)-3,4,5-trimethylpiperazin-1-yl)phenyl)-6-oxo-4-(trifluoromethyl)-1,6-dihydropyridine-3-carboxamide]: the “effective degradation of WDR5 in MV4;11 and/or MIAPACA2 cells” value (shortened to “effective degradation of WDR5”) is reported as “able to effectively degrade WDR5”.

Take `C[C@@H]1CN(c2cc(F)c(-c3cnc(N4CCN(C(=O)CCOCCOCCOCCOCCOCCNc5cccc6c5C(=O)N(C5CCC(=O)NC5=O)C6=O)CC4)nc3)cc2NC(=O)c2ccc(F)cc2C(F)(F)F)C[C@H](C)N1C` (stereo partly drawn) [XF078-127, N-(5-(2-(4-(1-((2-(2,6-dioxopiperidin-3-yl)-1,3-dioxoisoindolin-4-yl)amino)-3,6,9,12,15-pentaoxaoctadecan-18-oyl)piperazin-1-yl)pyrimidin-5-yl)-4-fluoro-2-((3S,5R)-3,4,5-trimethylpiperazin-1-yl)phenyl)-4-fluoro-2-(trifluoromethyl)benzamide]: the “effective degradation of WDR5” value is reported as “able to effectively degrade WDR5”. The entry for `C[C@@H]1CN(c2cc(F)c(-c3cnc(N4CCN(C(=O)CCOCCOCCOCCOCCNc5cccc6c5C(=O)N(C5CCC(=O)NC5=O)C6=O)CC4)nc3)cc2NC(=O)c2ccc(F)cc2C(F)(F)F)C[C@H](C)N1C` (stereo partly drawn) [XF078-126, N-(5-(2-(4-(1-((2-(2,6-dioxopiperidin-3-yl)-1,3-dioxoisoindolin-4-yl)amino)-3,6,9,12-tetraoxapentadecan-15-oyl)piperazin-1-yl)pyrimidin-5-yl)-4-fluoro-2-((3S,5R)-3,4,5-trimethylpiperazin-1-yl)phenyl)-4-fluoro-2-(trifluoromethyl)benzamide] is “able to effectively degrade WDR5”. Regarding `Cc1ncsc1-c1ccc(CNC(=O)[C@@H]2C[C@@H](O)CN2C(=O)[C@@H](NC(=O)COCCOCCOCCOCCOCC(=O)N2CCN(c3ncc(-c4cc(NC(=O)c5ccc(F)cc5C(F)(F)F)c(N5C[C@@H](C)N(C)[C@@H](C)C5)cc4F)cn3)CC2)C(C)(C)C)cc1` [XF078-106, (2S,4R)-1-((S)-2-(tert-butyl)-20-(4-(5-(2-fluoro-5-(4-fluoro-2-(trifluoromethyl)benzamido)-4-((3S,5R)-3,4,5-trimethylpiperazin-1-yl)phenyl)pyrimidin-2-yl)piperazin-1-yl)-4,20-dioxo-6,9,12,15,18-pentaoxa-3-azaicosanoyl)-4-hydroxy-N-(4-(4-methylthiazol-5-yl)benzyl)pyrrolidine-2-carboxamide], the “effective degradation of WDR5” value is “able to effectively degrade WDR5”. Take `Cc1ncsc1-c1ccc(CNC(=O)[C@@H]2C[C@@H](O)CN2C(=O)[C@@H](NC(=O)COCCNC(=O)CCC(=O)N2CCN(c3ccc(-c4cc(NC(=O)c5c[nH]c(=O)cc5C(F)(F)F)c(N5C[C@@H](C)N(C)[C@@H](C)C5)cc4F)cn3)CC2)C(C)(C)C)cc1` [XF067-140, N-(4-fluoro-5-(6-(4-(4-((2-(2-(((S)-1-((2S,4R)-4-hydroxy-2-((4-(4-methylthiazol-5-yl)benzyl)carbamoyl)pyrrolidin-1-yl)-3,3-dimethyl-1-oxobutan-2-yl)amino)-2-oxoethoxy)ethyl)amino)-4-oxobutanoyl)piperazin-1-yl)pyridin-3-yl)-2-((3S,5R)-3,4,5-trimethylpiperazin-1-yl)phenyl)-6-oxo-4-(trifluoromethyl)-1,6-dihydropyridine-3-carboxamide]: the “effective degradation of WDR5” value is on record as “able to effectively degrade WDR5”. Consider `Cc1ncsc1-c1ccc(CNC(=O)[C@@H]2C[C@@H](O)CN2C(=O)[C@@H](NC(=O)CCCCCC(=O)N2CCN(c3ncc(-c4cc(NC(=O)c5ccc(F)cc5C(F)(F)F)c(N5C[C@@H](C)N(C)[C@@H](C)C5)cc4F)cn3)CC2)C(C)(C)C)cc1` [XF078-111, (2S,4R)-1-((S)-2-(7-(4-(5-(2-fluoro-5-(4-fluoro-2-(trifluoromethyl)benzamido)-4-((3S,5R)-3,4,5-trimethylpiperazin-1-yl)phenyl)pyrimidin-2-yl)piperazin-1-yl)-7-oxoheptanamido)-3,3-dimethylbutanoyl)-4-hydroxy-N-(4-(4-methylthiazol-5-yl)benzyl)pyrrolidine-2-carboxamide], for which the “effective degradation of WDR5” value is reported as “able to effectively degrade WDR5”. As for `Cc1ncsc1-c1ccc(CNC(=O)[C@@H]2C[C@@H](O)CN2C(=O)[C@@H](NC(=O)CCCCCCC(=O)NCCN2CCN(Cc3ccc(F)c(-c4ccc(N5C[C@@H](C)N(C)[C@@H](C)C5)c(NC(=O)c5c[nH]c(=O)cc5C(F)(F)F)c4)c3)CC2)C(C)(C)C)cc1` [XF078-14, N^1-(2-(4-((6-fluoro-3′-(6-oxo-4-(trifluoromethyl)-1,6-dihydropyridine-3-carboxamido)-4′-((3S,5R)-3,4,5-trimethylpiperazin-1-yl)-[1,1′-biphenyl]-3-yl)methyl)piperazin-1-yl)ethyl)-N^8-((S)-1-((2S,4R)-4-hydroxy-2-((4-(4-methylthiazol-5-yl)benzyl)carbamoyl)pyrrolidin-1-yl)-3,3-dimethyl-1-oxobutan-2-yl)octanediamide], the entry is “able to effectively degrade WDR5”; as for `Cc1ncsc1-c1ccc(CNC(=O)[C@@H]2C[C@@H](O)CN2C(=O)[C@@H](NC(=O)COCCOCC(=O)N2CCN(c3ncc(-c4cc(NC(=O)c5ccc(F)cc5C(F)(F)F)c(N5C[C@@H](C)N(C)[C@@H](C)C5)cc4F)cn3)CC2)C(C)(C)C)cc1` [XF078-101, (2S,4R)-1-((S)-2-(2-(2-(2-(4-(5-(2-fluoro-5-(4-fluoro-2-(trifluoromethyl)benzamido)-4-((3S,5R)-3,4,5-trimethylpiperazin-1-yl)phenyl)pyrimidin-2-yl)piperazin-1-yl)-2-oxoethoxy)ethoxy)acetamido)-3,3-dimethylbutanoyl)-4-hydroxy-N-(4-(4-methylthiazol-5-yl)benzyl)pyrrolidine-2-carboxamide], “able to effectively degrade WDR5”; as for `C[C@@H]1CN(c2ccc(-c3cc(CN4CCN(CCNC(=O)CCOCCOCCNc5cccc6c5C(=O)N(C5CCC(=O)NC5=O)C6=O)CC4)ccc3F)cc2NC(=O)c2c[nH]c(=O)cc2C(F)(F)F)C[C@H](C)N1C` (stereo partly drawn) [XF078-26, N-(5′-((4-(2-(3-(2-(2-((2-(2,6-dioxopiperidin-3-yl)-1,3-dioxoisoindolin-4-yl)amino)ethoxy)ethoxy)propanamido)ethyl)piperazin-1-yl)methyl)-2′-fluoro-4-((3S,5R)-3,4,5-trimethylpiperazin-1-yl)-[1,1′-biphenyl]-3-yl)-6-oxo-4-(trifluoromethyl)-1,6-dihydropyridine-3-carboxamide], “able to effectively degrade WDR5”. As for `Cc1ncsc1-c1ccc(CNC(=O)[C@@H]2C[C@@H](O)CN2C(=O)[C@@H](NC(=O)CCCCCC(=O)N2CCN(Cc3cnc(N4CC=C(c5cc(NC(=O)c6c[nH]c(=O)cc6C(F)(F)F)c(N6C[C@@H](C)N(C)[C@@H](C)C6)cc5F)CC4)nc3)CC2)C(C)(C)C)cc1` [XF078-144, N-(4-fluoro-5-(1-(5-((4-(7-(((S)-1-((2S,4R)-4-hydroxy-2-((4-(4-methylthiazol-5-yl)benzyl)carbamoyl)pyrrolidin-1-yl)-3,3-dimethyl-1-oxobutan-2-yl)amino)-7-oxoheptanoyl)piperazin-1-yl)methyl)pyrimidin-2-yl)-1,2,3,6-tetrahydropyridin-4-yl)-2-((3S,5R)-3,4,5-trimethylpiperazin-1-yl)phenyl)-6-oxo-4-(trifluoromethyl)-1,6-dihydropyridine-3-carboxamide], the entry is “able to effectively degrade WDR5”; as for `C[C@@H]1CN(c2cc(F)c(C3=CCN(c4ncc(CN5CCN(C(=O)CNc6cccc7c6C(=O)N(C6CCC(=O)NC6=O)C7=O)CC5)cn4)CC3)cc2NC(=O)c2c[nH]c(=O)cc2C(F)(F)F)C[C@H](C)N1C` (stereo partly drawn) [XF078-149, N-(5-(1-(5-((4-((2-(2,6-dioxopiperidin-3-yl)-1,3-dioxoisoindolin-4-yl)glycyl)piperazin-1-yl)methyl)pyrimidin-2-yl)-1,2,3,6-tetrahydropyridin-4-yl)-4-fluoro-2-((3S,5R)-3,4,5-trimethylpiperazin-1-yl)phenyl)-6-oxo-4-(trifluoromethyl)-1,6-dihydropyridine-3-carboxamide], “able to effectively degrade WDR5”.
